Measured values: patent publication US20060095982A1 (priority 2002, published 2006)
Marks after values point to notes of the source that are not given here.

Key:
[1] = tested on: Salvia natans; details: 5 μg/ml HgCl2; cited from earlier work
[2] = tested on: Bacopa monnieri; details: 5 μg/ml HgCl2; cited from earlier work
[3] = tested on: WT tobacco plant (Petit Havana); assay: Hg accumulation in shoots and roots (CVAAS), WT
[4] = tested on: WT tobacco plants; assay: Speciation of Hg by X-ray absorption spectroscopy, WT
[5] = tested on: E. coli cells containing pLDR-MerAB and pLDR-MerAB-3′UTR; assay: Mercury resistance bioassay in bacteria, transformed clones; details: 24 hours at 37° C.
[6] = tested on: transgenic tobacco lines 5A (pLDR-MerAB) and 9 (pLDR-MerAB-3′UTR); assay: Hg accumulation in shoots and roots (CVAAS), transgenic lines
[7] = tested on: Untransformed E. coli cells (XL1-blue); assay: Mercury resistance bioassay in bacteria, untransformed control; details: 25 μM HgCl2
[8] = tested on: mer-AB transgenic tobacco shoots and roots; assay: Speciation of Hg by X-ray absorption spectroscopy, transgenic plants; details: 100 μM for 15 d
[9] = tested on: WT tobacco plants; assay: Plant growth and tolerance on Hg-amended soil (dry weight, root length), WT
[10] = tested on: chloroplast engineered pLDR-merAB and pLDR-merAB 3′UTR tobacco plants; assay: Plant growth and tolerance on Hg-amended soil (dry weight, root length), transgenic lines
[11] = tested on: wild type tobacco plants (Petit Havana); details: 14 days
[12] = tested on: merAB seedlings (pLDR-MerAB and pLDR-MerAB-3′UTR clones); details: 14 days
[13] = tested on: wild type tobacco plants; details: increase in PMA from 0 to 400 μM in soil, 14 d
[14] = tested on: transgenic tobacco lines 5A (pLDR-MerAB) and 9 (pLDR-MerAB-3′UTR)
[15] = tested on: leaf disks of wild type tobacco; details: 10 μM PMA
[16] = tested on: leaf disks of transgenic tobacco lines; details: 10 μM PMA
[17] = tested on: Chlorella; assay: Preliminary heavy metal tolerance of wild-type Chlorella; details: preliminary studies

For `[Cl][Hg][Cl]` [HgCl2, mercuric chloride], the “reduction of chlorophyll content” value [1] is given as 26%, the “reduction of chlorophyll content” value [2] is given as 35% and the “Hg accumulation, Root, WT” value ([3]; soil amended with 100 μM) is given as 97.04. The “Hg accumulation, Shoot, WT” value ([3]; soil amended with 100 μM) was 4.74, the “Hg accumulation, Root, WT” value ([3]; soil amended with 200 μM) was 143.8 and the “Hg accumulation, Shoot, WT” value ([3]; soil amended with 200 μM) was 0.57. For the same compound, the “Hg accumulation, Root, WT” value ([3]; soil amended with 300 μM) was 120.1, the “Hg accumulation, Shoot, WT” value ([3]; soil amended with 300 μM) was 0.23 and the “form of mercury accumulated by WT plants (XAS edge-fitting)” value [4] was “entirely in the form of the mercury supplied”. The “growth in liquid broth” value ([5]; 25 and 50 μM HgCl2, LB broth) was “able to grow”, the “concentrations of HgCl2 in which cells were able to grow” value ([5]; solid agar plates, LB) was “up to 100 μM” and the “mercury accumulated in shoots of transgenic plants relative to WT” value ([6]; 100 μM) was 3 times. The “mercury accumulated in shoots of transgenic plants relative to WT” value ([6]; 200 μM) was 9 times, the “Hg accumulation, Root, 5A” value ([6]; soil amended with 100 μM) was 115.1 and the “Hg accumulation, Root, 9” value ([6]; soil amended with 100 μM) was 114.8. The “Hg accumulation, Shoot, 5A” value ([6]; soil amended with 100 μM) was 7.42, the “Hg accumulation, Shoot, 9” value ([6]; soil amended with 100 μM) was 6.27 and the “Hg accumulation, Root, 5A” value ([6]; soil amended with 200 μM) was 215.5. For the same compound, the “Hg accumulation, Root, 9” value ([6]; soil amended with 200 μM) was 149.5, the “Hg accumulation, Shoot, 5A” value ([6]; soil amended with 200 μM) was 6.4** and the “Hg accumulation, Shoot, 9” value ([6]; soil amended with 200 μM) was 4.5*. The “Hg accumulation, Root, 5A” value ([6]; soil amended with 300 μM) was 333.8*, the “Hg accumulation, Root, 9” value ([6]; soil amended with 300 μM) was 377.4 and the “Hg accumulation, Shoot, 5A” value ([6]; soil amended with 300 μM) was 0.6*. For the same compound, the “Hg accumulation, Shoot, 9” value ([6]; soil amended with 300 μM) was 0.7*, the “growth of untransformed cells” value [7] was “unable to grow” and the “share of accumulated mercury in inorganic Hg-like form (XAS curve fitting)” value [8] was 77%. The “share of accumulated mercury in organic Hg-like form (XAS curve fitting)” value [8] was 33%, the “effect on root lengths of WT” value ([9]; concentration in soil from 0 to 300 μM) was “not significantly affected” and the “difference between dry weights of WT and transgenic lines” value ([10]; concentration from 0 to 300 μM in soil) was “no significant differences”. The “effect on root lengths of transgenic lines” value ([10]; concentration in soil from 0 to 300 μM, compared to WT) was “increased the roots lengths” and the “toxicity to merAB-tobacco plants relative to PMA” value ([10]; supplied at the same concentration) was “less toxic”.

With `CC(=O)[O-].[Hg+][c]1ccccc1` [PMA, phenylmercuric acetate] the “survival of wild type plants” value ([11]; 50 μM PMA in soil) was “barely survived”, the “effect on wild type plants” value ([11]; 100 and 200 μM PMA in soil) was “lethal” and the “survival of merAB seedlings” value ([12]; 200 μM PMA in soil) was “survived”. For the same compound, the “PMA concentration at which seedlings grew well” value ([12]; soil, both transgenic clones) was “up to 100 μM”, the “total dry weight of wild type plants” value [13] was “decreased progressively” and the “concentration tolerated when grown in soil” value ([14]; chloroplast transformed lines) was “up to 400 μM”. For the same compound, the “total dry weight of transgenic plants” value ([14]; increase in PMA until PMA reached 400 μM, soil, 14 d) was “no decrease in total dry weight”, the “chlorophyll content of leaf disks” value [15] was “reduced” and the “chlorophyll content of leaf disks” value [16] was “markedly increased”. For the same compound, the “form of mercury accumulated by WT plants (XAS edge-fitting)” value [4] was “entirely in the form of the mercury supplied”, the “average reduction of root length” value ([9]; WT, concentration increased from 0 μM to 300 μM) was 6 cm and the “dry weights of WT shoots and roots” value ([9]; concentration increased from 0 to 300 μM in soil, 15 days) was “decreased progressively”. For the same compound, the “average reduction of root length” value ([10]; both transgenic lines, concentration increased from 0 μM to 300 μM) was 4 cm and the “dry weights of transgenic lines relative to WT” value ([10]; under PMA treatment) was 2 fold.

For `O=S(=O)([O-])[O-].[Cd+2]` [cadmium sulfate], the “level tolerated by Chlorella” value [17] was “at least 200 μM”.
